# Test results published in ChEMBL document CHEMBL1773026, “Inhalation by design: dual pharmacology β-2 agonists/M3 antagonists for the treatment of COPD” (Bioorg Med Chem Lett, 2011).
# Experiments:
# [1] = target: T1, Beta-2 adrenergic receptor (Homo sapiens, UniProt P07550); test: Agonist activity at human beta2 adrenergic receptor expressed in CHO cells assessed as stimulation of intracellular cAMP production after 30 mins of washing by wash-off assay; type: functional, cell-based
# Target sequence in this assay (P07550 whole entry): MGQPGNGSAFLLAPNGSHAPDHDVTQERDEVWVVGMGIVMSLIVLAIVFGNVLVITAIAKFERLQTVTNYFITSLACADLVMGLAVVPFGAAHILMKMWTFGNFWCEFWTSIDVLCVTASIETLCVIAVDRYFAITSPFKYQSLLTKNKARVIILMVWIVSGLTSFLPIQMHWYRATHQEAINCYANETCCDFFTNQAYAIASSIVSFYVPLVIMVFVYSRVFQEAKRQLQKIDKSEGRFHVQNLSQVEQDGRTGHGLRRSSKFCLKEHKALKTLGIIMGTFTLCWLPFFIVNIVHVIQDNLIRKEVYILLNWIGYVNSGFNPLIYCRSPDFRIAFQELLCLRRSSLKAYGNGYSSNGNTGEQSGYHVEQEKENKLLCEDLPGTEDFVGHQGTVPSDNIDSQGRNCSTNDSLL
# [2] = target: T2, Muscarinic acetylcholine receptor M3 (Homo sapiens, UniProt P20309); test: Displacement of [3H]N-methyl Scopolamine from human muscarinic M3 receptor expressed in CHO cells by scintillation proximity assay; type: cell-based
# Target sequence in this assay (P20309 whole entry): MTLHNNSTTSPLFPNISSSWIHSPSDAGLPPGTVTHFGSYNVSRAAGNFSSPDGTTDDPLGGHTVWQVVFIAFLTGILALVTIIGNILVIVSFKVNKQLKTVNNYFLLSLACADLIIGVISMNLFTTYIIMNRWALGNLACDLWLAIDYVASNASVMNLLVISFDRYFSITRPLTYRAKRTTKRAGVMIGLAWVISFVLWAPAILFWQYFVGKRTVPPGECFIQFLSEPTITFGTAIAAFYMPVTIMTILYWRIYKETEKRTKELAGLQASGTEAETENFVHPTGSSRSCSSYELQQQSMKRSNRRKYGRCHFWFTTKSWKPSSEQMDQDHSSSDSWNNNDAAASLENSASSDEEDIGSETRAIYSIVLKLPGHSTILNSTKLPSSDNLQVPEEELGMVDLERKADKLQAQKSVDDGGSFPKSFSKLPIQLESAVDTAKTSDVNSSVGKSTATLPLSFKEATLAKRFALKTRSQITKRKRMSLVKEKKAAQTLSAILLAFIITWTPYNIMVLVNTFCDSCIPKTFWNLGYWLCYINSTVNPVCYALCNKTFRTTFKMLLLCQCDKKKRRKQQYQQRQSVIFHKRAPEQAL
# [3] = target: T1, Beta-2 adrenergic receptor; test: Ratio of EC50 for human beta2 adrenergic receptor by unwashed assay to EC50 for human beta2 adrenergic receptor expressed in CHO cells by wash-off assay; type: cell-based
# Target sequence in this assay (P07550 whole entry, looked up): as the sequence (P07550 whole entry) above
# [4] = Clearance in human liver microsomes; type: ADME, Microsome
# [5] = target: T2, Muscarinic acetylcholine receptor M3; test: Displacement of [3H]NMS from human muscarinic M3 receptor expressed in CHO cells assessed as time required to reach 50% of total [3H]NMS binding by dilution-offset methodology; type: cell-based
# Target sequence in this assay (P20309 whole entry, looked up): as the sequence (P20309 whole entry) above
# [6] = Bronchodilatory activity against electrically-stimulated contraction in guinea pig trachea assessed as concentration required for 50% bronchorelaxation activity; type: functional, tissue-based, Cavia porcellus
# [7] = Bronchodilatory activity against electrically-stimulated contraction in guinea pig trachea assessed as time taken for inducing 50% maximum relaxant effect; type: functional, Cavia porcellus
# [8] = target: Muscarinic acetylcholine receptor M3 (Cavia porcellus, UniProt Q8VH26); test: […] activity at muscarinic M3 receptor in guinea pig trachea assessed as bronchorelaxation activity in presence of propranolol; type: functional, tissue-based
# Chain of Muscarinic acetylcholine receptor M3 (Cavia porcellus, UniProt Q8VH26) (Q8VH26 whole entry): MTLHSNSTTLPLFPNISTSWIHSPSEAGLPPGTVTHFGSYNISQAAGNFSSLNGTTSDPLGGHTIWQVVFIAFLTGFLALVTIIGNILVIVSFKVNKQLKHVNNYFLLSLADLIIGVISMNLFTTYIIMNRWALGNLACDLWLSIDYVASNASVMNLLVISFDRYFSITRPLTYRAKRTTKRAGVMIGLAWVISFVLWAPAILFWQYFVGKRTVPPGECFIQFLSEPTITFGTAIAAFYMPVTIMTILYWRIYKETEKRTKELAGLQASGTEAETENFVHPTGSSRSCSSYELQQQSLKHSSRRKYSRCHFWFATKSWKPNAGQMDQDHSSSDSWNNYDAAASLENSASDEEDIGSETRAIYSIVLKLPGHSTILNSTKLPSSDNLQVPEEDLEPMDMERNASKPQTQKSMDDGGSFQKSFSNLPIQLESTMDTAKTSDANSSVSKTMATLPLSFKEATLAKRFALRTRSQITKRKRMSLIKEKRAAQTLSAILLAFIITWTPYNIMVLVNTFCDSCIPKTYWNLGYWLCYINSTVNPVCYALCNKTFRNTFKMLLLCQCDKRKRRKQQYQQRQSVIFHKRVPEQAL
# [9] = target: Muscarinic acetylcholine receptor M3 (Cavia porcellus) (UniProt Q8VH26); test: […] activity at muscarinic M3 receptor in guinea pig trachea assessed as time taken for inducing bronchorelaxation activity in presence of propranolol; type: functional, tissue-based
# Chain of Muscarinic acetylcholine receptor M3 (Cavia porcellus) (Q8VH26 1-587): as the sequence (Q8VH26 whole entry) above
# [10] = target: Beta-2 adrenergic receptor (Cavia porcellus, UniProt Q8K4Z4); test: Agonist activity at adrenergic beta2 receptor in guinea pig trachea assessed as bronchorelaxation activity against histamine-induced contraction; type: functional
# Chain of Beta-2 adrenergic receptor (Cavia porcellus, UniProt Q8K4Z4) (Q8K4Z4 whole entry): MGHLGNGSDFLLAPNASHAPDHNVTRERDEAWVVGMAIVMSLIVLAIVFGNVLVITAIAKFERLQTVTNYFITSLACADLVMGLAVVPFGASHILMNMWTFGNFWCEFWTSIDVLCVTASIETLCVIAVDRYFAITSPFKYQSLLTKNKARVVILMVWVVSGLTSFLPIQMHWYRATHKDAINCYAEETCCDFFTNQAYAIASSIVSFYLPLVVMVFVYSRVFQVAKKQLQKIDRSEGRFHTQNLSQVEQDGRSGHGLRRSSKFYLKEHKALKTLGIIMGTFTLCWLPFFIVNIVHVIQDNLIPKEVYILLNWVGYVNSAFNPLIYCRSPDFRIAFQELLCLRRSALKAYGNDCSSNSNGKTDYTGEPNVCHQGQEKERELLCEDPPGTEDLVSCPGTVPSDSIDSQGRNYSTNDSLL
# Canis familiaris [11] = species: Canis familiaris; test: Inhibition of methacholine-induced bronchoconstriction in dog; type: functional, Canis lupus familiaris
# [12] = Oral bioavailability in human; type: ADME, organism-based; settings: in vivo
# [13] = AUC in rat at 2 mg/kg, iv; type: ADME, organism-based; set-up: dose 2 mg/kg, route intravenous; settings: plasma
# [14] = Clearance in rat at 2 mg/kg, iv; type: ADME, organism-based; set-up: dose 2 mg/kg, route intravenous; settings: in vivo
# Canis familiaris [15] = species: Canis familiaris; test: Inhibition of methacholine-induced bronchoconstriction in dog assessed as duration action at 30 ug, it; type: functional, Canis lupus familiaris
Structure (SMILES),EC50 [1] [nM],Ki [2] [nM],Ratio EC50 [3],microsomal CLint [4] [µL/min/mg],TIME [5] [h],EC50 [6] [nM],Time [7] [h],EC50 [8] [nM],TIME [9] [h],EC50 [10] [nM],ED50 (Canis familiaris [11]) [µg],bioavailability [12] [%],AUC [13] [ng·h/mL],clearance [14] [mL/min/kg],Time (Canis familiaris [15]) [h]
CC(C)N(CC[C@H](c1ccccc1)c1cc(CCCCOc2ccc(CCNC[C@H](O)c3ccc(O)c(O)c3)cc2)ccc1O)C(C)C,173,4.7,,,,,,,,,,,,,
CC(C)N(CC[C@H](c1ccccc1)c1cc(CCCCOc2ccc(CCNC[C@H](O)c3ccc(O)c(NS(C)(=O)=O)c3)cc2)ccc1O)C(C)C,13,0.634,1.9,67,> 20,,,,,,,,,,
CC(C)N(CC[C@H](c1ccccc1)c1cc(CCCCOc2ccc(CCNC[C@H](O)c3ccc(O)c(CO)c3)cc2)ccc1O)C(C)C,129,0.765,2.6,54,> 20,,,,,,,,,,
CC(C)N(CC[C@H](c1ccccc1)c1cc(CCCNC(=O)Cc2cccc(CC(C)(C)NC[C@H](O)c3ccc(O)c(CO)c3)c2)ccc1O)C(C)C,17,0.091,2.8,263,5.92,,,,,,,,,,
CC(C)N(CC[C@H](c1ccccc1)c1cc(CCCNC(=O)CCCCCCCCCCNC[C@H](O)c2ccc(O)c(NS(C)(=O)=O)c2)ccc1O)C(C)C,116,1.45,7.3,87,,,,,,,,,,,
Cc1ccc(O)c([C@H](CCN(C(C)C)C(C)C)c2ccccc2)c1 [TOLTERODINE],,,,163,< 0.25,,,,,,,,,,
C[C@H](Cc1cccc(CC(=O)NCc2ccc(Cl)c(Cl)c2)c1)NC[C@H](O)c1ccc(O)c(CO)c1,1.1,,2.9,> 440,,,,,,,,,,,
CC(C)N(CC[C@H](c1ccccc1)c1cc(CCCCOCCCCCCNC[C@H](O)c2ccc(O)c(NS(C)(=O)=O)c2)ccc1O)C(C)C,5.7,0.99,0.7,57,> 20,,,,,,,,,,
CC(C)N(CC[C@H](c1ccccc1)c1cc(CCCNC(=O)Cc2cccc(C[C@@H](C)NC[C@H](O)c3cc(O)cc(O)c3)c2)ccc1O)C(C)C,15,0.397,0.7,> 440,2.25,,,,,,,,,,
CC(C)N(CC[C@H](c1ccccc1)c1cc(CCCCOc2ccc(CCNC[C@H](O)c3ccc(O)c4[nH]c(=O)ccc34)cc2)ccc1O)C(C)C,2.4,0.305,1.1,74,> 20,4.1,>7.7,4,> 10,4,30,< 5,2670,12.6,>16
CC(C)N(CC[C@H](c1ccccc1)c1cc(CCCNC(=O)Cc2cccc(CC(C)(C)NC[C@H](O)c3ccc(O)c(NS(C)(=O)=O)c3)c2)ccc1O)C(C)C,8.1,0.276,1.1,109,2.77,1.3,>6.5,5.3,4.8,2.1,,,,,
CC(C)N(CC[C@H](c1ccccc1)c1cc(CCNC[C@H](O)c2ccc(O)c(NS(C)(=O)=O)c2)ccc1O)C(C)C,10,6.1,19,,< 0.25,,,,,,,,,,
